Experimental data reported in the supplement of paper PMC8149375.
Values belong to the compound of their own block, whether it stands above or below them.

What was measured:
Details in all cases: treatment: drug alone; 5 days
769-P [1] = experiment: GI50, drug alone; higher = less potent
Description: (§1)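 Primary HTS: 8 RCC cell lines treated with 8 doses (up to 10 uM) of each library drug alone for 5 days; viability read by CellTiter-Glo and normalised to DMSO. GI50 was fitted with XLfit (4-parameter), AUC is the area under the dose-response curve, and minimum viability is the lowest fraction of DMSO viability across doses.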

786-O [2] = experiment: GI50, drug alone; higher = less potent
Description: as §1

A498 [3] = experiment: GI50, drug alone; higher = less potent
Description: as §1

ACHN [4] = experiment: GI50, drug alone; higher = less potent
Description: as §1

CAKI-1 [5] = experiment: GI50, drug alone; higher = less potent
Description: as §1

SN12C [6] = experiment: GI50, drug alone; higher = less potent
Description: as §1

TK-10 [7] = experiment: GI50, drug alone; higher = less potent
Description: as §1

UO-31 [8] = experiment: GI50, drug alone; higher = less potent
Description: as §1

769-P [9] = experiment: minimum viability across doses, drug alone, relative to DMSO (fraction); higher = less growth inhibition
Description: as §1

786-O [10] = experiment: as above
Description: as §1

A498 [11] = experiment: as above
Description: as §1

ACHN [12] = experiment: as above
Description: as §1

CAKI-1 [13] = experiment: as above
Description: as §1

SN12C [14] = experiment: as above
Description: as §1

TK-10 [15] = experiment: as above
Description: as §1

UO-31 [16] = experiment: as above
Description: as §1

769-P [17] = experiment: AUC of dose-response viability curve, drug alone (arbitrary (AUC of normalised viability)); higher = less growth inhibition
Description: as §1

786-O [18] = experiment: as above
Description: as §1

A498 [19] = experiment: as above
Description: as §1

ACHN [20] = experiment: as above
Description: as §1

CAKI-1 [21] = experiment: as above
Description: as §1

SN12C [22] = experiment: as above
Description: as §1

TK-10 [23] = experiment: as above
Description: as §1

UO-31 [24] = experiment: as above
Description: as §1

- GI50, drug alone (786-O [2]): 0.631 µM
- GI50, drug alone (ACHN [4]): 2.48 µM
Compound: COCCOc1ccc2c(c1)ncn2-c1ccc2cccc(N3CCC(N)CC3)c2n1
- GI50, drug alone (769-P [1]): 6.04 µM
- GI50, drug alone (A498 [3]): 3.3 µM
- GI50, drug alone (CAKI-1 [5]): 2.11 µM
- GI50, drug alone (SN12C [6]): 2.8 µM
- GI50, drug alone (TK-10 [7]): 2.12 µM
- GI50, drug alone (UO-31 [8]): 2.91 µM
- minimum viability across doses (769-P [9]): 0.333
- minimum viability across doses (786-O [10]): 0.00547
- minimum viability across doses (A498 [11]): 0.0414
- minimum viability across doses (ACHN [12]): 0.0176
- minimum viability across doses (CAKI-1 [13]): 0.292
- minimum viability across doses (SN12C [14]): 0.0384
- minimum viability across doses (TK-10 [15]): 0.198
- minimum viability across doses (UO-31 [16]): 0.00652
- AUC of dose-response viability curve (769-P [17]): 3.12
- AUC of dose-response viability curve (786-O [18]): 1.81
- AUC of dose-response viability curve (A498 [19]): 3.27
- AUC of dose-response viability curve (ACHN [20]): 2.7
- AUC of dose-response viability curve (CAKI-1 [21]): 2.66
- AUC of dose-response viability curve (SN12C [22]): 2.92
- AUC of dose-response viability curve (TK-10 [23]): 2.43
- AUC of dose-response viability curve (UO-31 [24]): 3.38

- GI50, drug alone (786-O [2]): 0.538 µM
- GI50, drug alone (ACHN [4]): 2.73 µM
Compound: CC1(COc2ccc3c(c2)ncn3-c2ccc3cccc(N4CCC(N)CC4)c3n2)COC1
- GI50, drug alone (769-P [1]): 5.05 µM
- GI50, drug alone (A498 [3]): 3.47 µM
- GI50, drug alone (CAKI-1 [5]): 3.2 µM
- GI50, drug alone (SN12C [6]): 2.19 µM
- GI50, drug alone (TK-10 [7]): 4.88 µM
- GI50, drug alone (UO-31 [8]): 1.37 µM
- minimum viability across doses (769-P [9]): 0.283
- minimum viability across doses (786-O [10]): 0.00547
- minimum viability across doses (A498 [11]): 0.0171
- minimum viability across doses (ACHN [12]): 0.0169
- minimum viability across doses (CAKI-1 [13]): 0.319
- minimum viability across doses (SN12C [14]): 0.0442
- minimum viability across doses (TK-10 [15]): 0.16
- minimum viability across doses (UO-31 [16]): 0.0124
- AUC of dose-response viability curve (769-P [17]): 2.25
- AUC of dose-response viability curve (786-O [18]): 1.83
- AUC of dose-response viability curve (A498 [19]): 3.5
- AUC of dose-response viability curve (ACHN [20]): 2.98
- AUC of dose-response viability curve (CAKI-1 [21]): 2.69
- AUC of dose-response viability curve (SN12C [22]): 2.58
- AUC of dose-response viability curve (TK-10 [23]): 2.88
- AUC of dose-response viability curve (UO-31 [24]): 2.67

Compound: Cn1cc(C2=C(c3cn(C4CCN(Cc5ccccn5)CC4)c4ccccc34)C(=O)NC2=O)c2ccccc21
- GI50, drug alone (769-P [1]): > 10 µM
- GI50, drug alone (786-O [2]): > 10 µM
- GI50, drug alone (A498 [3]): > 10 µM
- GI50, drug alone (ACHN [4]): > 10 µM
- GI50, drug alone (CAKI-1 [5]): > 10 µM
- GI50, drug alone (SN12C [6]): > 10 µM
- GI50, drug alone (TK-10 [7]): > 10 µM
- GI50, drug alone (UO-31 [8]): > 10 µM
- minimum viability across doses (769-P [9]): 0.834
- minimum viability across doses (786-O [10]): 0.805
- minimum viability across doses (A498 [11]): 1.1
- minimum viability across doses (ACHN [12]): 0.863
- minimum viability across doses (CAKI-1 [13]): 0.814
- minimum viability across doses (SN12C [14]): 0.861
- minimum viability across doses (TK-10 [15]): 0.698
- minimum viability across doses (UO-31 [16]): 0.922
- AUC of dose-response viability curve (769-P [17]): 3.34
- AUC of dose-response viability curve (786-O [18]): 3.23
- AUC of dose-response viability curve (A498 [19]): 4.23
- AUC of dose-response viability curve (ACHN [20]): 3.3
- AUC of dose-response viability curve (CAKI-1 [21]): 3.55
- AUC of dose-response viability curve (SN12C [22]): 3.33
- AUC of dose-response viability curve (TK-10 [23]): 3.24
- AUC of dose-response viability curve (UO-31 [24]): 4.69

- GI50, drug alone (786-O [2]): 0.00629 µM
- GI50, drug alone (ACHN [4]): 0.017 µM
Compound: CCc1cnn2c(NCc3ccc[n+]([O-])c3)cc(N3CCCC[C@H]3CCO)nc12
- GI50, drug alone (769-P [1]): 0.0298 µM
- GI50, drug alone (A498 [3]): 0.0136 µM
- GI50, drug alone (CAKI-1 [5]): 0.0147 µM
- GI50, drug alone (SN12C [6]): 0.0147 µM
- GI50, drug alone (TK-10 [7]): 0.0218 µM
- GI50, drug alone (UO-31 [8]): 0.011 µM
- minimum viability across doses (769-P [9]): 0.0153
- minimum viability across doses (786-O [10]): 0.00554
- minimum viability across doses (A498 [11]): 0.00896
- minimum viability across doses (ACHN [12]): 0.011
- minimum viability across doses (CAKI-1 [13]): 0.0724
- minimum viability across doses (SN12C [14]): 0.0122
- minimum viability across doses (TK-10 [15]): 0.128
- minimum viability across doses (UO-31 [16]): 0.0105
- AUC of dose-response viability curve (769-P [17]): 1.04
- AUC of dose-response viability curve (786-O [18]): 0.398
- AUC of dose-response viability curve (A498 [19]): 0.65
- AUC of dose-response viability curve (ACHN [20]): 0.783
- AUC of dose-response viability curve (CAKI-1 [21]): 0.874
- AUC of dose-response viability curve (SN12C [22]): 0.716
- AUC of dose-response viability curve (TK-10 [23]): 1.15
- AUC of dose-response viability curve (UO-31 [24]): 0.612

- GI50, drug alone (786-O [2]): 0.179 µM
- GI50, drug alone (ACHN [4]): 0.0785 µM
Compound: Cc1nc(Nc2ncc(C(=O)Nc3c(C)cccc3Cl)s2)cc(N2CCN(CCO)CC2)n1
- GI50, drug alone (769-P [1]): 0.149 µM
- GI50, drug alone (A498 [3]): > 10 µM
- GI50, drug alone (CAKI-1 [5]): 0.0788 µM
- GI50, drug alone (SN12C [6]): 2.3 µM
- GI50, drug alone (TK-10 [7]): 0.0257 µM
- GI50, drug alone (UO-31 [8]): 0.135 µM
- minimum viability across doses (769-P [9]): 0.0457
- minimum viability across doses (786-O [10]): 0.0837
- minimum viability across doses (A498 [11]): 0.631
- minimum viability across doses (ACHN [12]): 0.0527
- minimum viability across doses (CAKI-1 [13]): 0.0431
- minimum viability across doses (SN12C [14]): 0.377
- minimum viability across doses (TK-10 [15]): 0.0612
- minimum viability across doses (UO-31 [16]): 0.0768
- AUC of dose-response viability curve (769-P [17]): 1.7
- AUC of dose-response viability curve (786-O [18]): 1.9
- AUC of dose-response viability curve (A498 [19]): 3.35
- AUC of dose-response viability curve (ACHN [20]): 1.52
- AUC of dose-response viability curve (CAKI-1 [21]): 1.45
- AUC of dose-response viability curve (SN12C [22]): 2.35
- AUC of dose-response viability curve (TK-10 [23]): 1.11
- AUC of dose-response viability curve (UO-31 [24]): 1.93
